Measured values as given in patent publication US20220386606A1, “SPECIFICALLY SUBSTITUTED 3-PHENYL-5-SPIROCYCLOPENTYL-3-PYRROLIN-2-ONES AND THEIR USE AS HERBICIDES” (Bayer Aktiengesellschaft, priority 2019, published 2022).

How the values were obtained:
AVEFA [1] = test: Pre-emergence herbicidal action against AVEFA; assay type: in vivo, Avena fatua; details: 320 g/ha, scored visually after 3 weeks vs untreated controls
Procedure, shortened: (§1)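 Seeds sown in sandy loam in wood-fiber pots and covered with soil; WP or EC formulations applied to covering soil surface as aqueous suspension/emulsion at 600 to 800 L/ha water plus 0.2% wetting agent. Greenhouse-grown; damage scored visually after 3 weeks versus untreated controls (100% = dead, 0% = like control).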

SETVI [2] = test: Post-emergence herbicidal action against SETVI; assay type: in vivo, Setaria viridis; details: 80 g/ha, visual assessment about 3 weeks after treatment vs untreated controls
Procedure, shortened: (§2)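 Herbicidal action is rated visually in percent against untreated controls, where 100% means dead plants and 0% means no difference. Ratings come about 3 weeks after foliar spraying of one-leaf-stage plants with aqueous WP or EC preparations plus 0.2% wetting agent at 600 to 800 l/ha.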

ECHCG [3] = test: Post-emergence herbicidal action against ECHCG; assay type: in vivo, Echinochloa crus-galli; details: 80 g/ha, visual assessment about 3 weeks after treatment vs untreated controls
Procedure, shortened: as §2

DIGSA [4] = test: Post-emergence herbicidal action against DIGSA; assay type: in vivo, Digitaria sanguinalis; details: 80 g/ha, visual assessment about 3 weeks after treatment vs untreated controls
Procedure, shortened: as §2

LOLRI [5] = test: Post-emergence herbicidal action against LOLRI; assay type: in vivo, Lolium rigidum; details: 80 g/ha, visual assessment about 3 weeks after treatment vs untreated controls
Procedure, shortened: as §2

MATIN = test: Pre-emergence herbicidal action against MATIN; assay type: in vivo; details: 320 g/ha
From the text: (§3) Seeds of monocotyledonous and dicotyledonous weed plants and crop plants are laid out in sandy loam soil in wood-fiber pots and covered with soil. The compounds of the invention, formulated in the form of wettable powders (WP) or as emulsion concentrates (EC), are then applied to the surface of the covering soil as aqueous suspension or emulsion at a water application rate equating to 600 to 800 L/ha with addition of 0.2% wetting agent.
(§4) After the treatment, the pots are placed in a greenhouse and kept under good growth conditions for the trial plants. The damage to the test plants is scored visually after a test period of 3 weeks by comparison with untreated controls (herbicidal activity in percent (%): 100% activity=the plants have died, 0% activity=like control plants).

LOLRI [6] = test: Pre-emergence herbicidal action against LOLRI (Table 8, titled post-emergence at 320 g/ha); assay type: in vivo, Lolium rigidum; details: table stands in the pre-emergence section
Procedure, shortened: as §1

ECHCG [7] = test: Pre-emergence herbicidal action against ECHCG; assay type: in vivo, Echinochloa crus-galli; details: 320 g/ha, scored visually after 3 weeks vs untreated controls
Procedure, shortened: as §1

VIOTR = test: Pre-emergence herbicidal action against VIOTR; assay type: in vivo, Viola tricolor; details: 320 g/ha
Procedure, shortened: as §1

ALOMY [8] = test: Pre-emergence herbicidal action against ALOMY; assay type: in vivo, Alopecurus myosuroides; details: 320 g/ha, scored visually after 3 weeks vs untreated controls
Procedure, shortened: as §1

ALOMY [9] = test: Post-emergence herbicidal action against ALOMY; assay type: in vivo, Alopecurus myosuroides; details: 80 g/ha, visual assessment after about 3 weeks
Procedure, shortened: as §2

SETVI [10] = test: Pre-emergence herbicidal action against SETVI; assay type: in vivo, Setaria viridis; details: 320 g/ha, scored visually after 3 weeks vs untreated controls
Procedure, shortened: as §1

AMARE = test: Pre-emergence herbicidal action against AMARE; assay type: in vivo, Amaranthus retroflexus; details: 320 g/ha
Procedure, shortened: as §1

VERPE = test: Pre-emergence herbicidal action against VERPE; assay type: in vivo, Veronica persica; details: 320 g/ha
From the text: as §3, §4

DIGSA [11] = test: Pre-emergence herbicidal action against DIGSA; assay type: in vivo, Digitaria sanguinalis; details: 320 g/ha, scored visually after 3 weeks vs untreated controls
Procedure, shortened: as §1

ABUTH = test: Post-emergence herbicidal action against ABUTH; assay type: in vivo, Abutylon threophrasti; details: 80 g/ha, visual assessment about 3 weeks after treatment vs untreated controls
Description: Seeds of monocotyledonous and dicotyledonous weed and crop plants are laid out in sandy loam soil in wood-fiber pots, covered with soil and cultivated in a greenhouse under good growth conditions. 2 to 3 weeks after sowing, the test plants are treated at the one-leaf stage. The compounds of the invention, formulated in the form of wettable powders (WP) or as emulsion concentrates (EC), are then sprayed onto the green parts of the plants as aqueous suspension or emulsion at a water application rate equating to 600 to 800 l/ha with addition of 0.2% wetting agent. After the test plants have been left to stand in the greenhouse under optimal growth conditions for about 3 weeks, the action of the preparations is assessed visually in comparison to untreated controls (herbicidal action in percent (%): 100% activity=the plants have died, 0% activity=like control plants).

AVEFA [12] = test: Post-emergence herbicidal action against AVEFA; assay type: in vivo, Avena fatua; details: 80 g/ha, visual assessment after about 3 weeks
Procedure, shortened: as §2

SMILES	Pre-emergence action against AVEFA in % (AVEFA [1]) [%]	Post-emergence action against SETVI in % (SETVI [2]) [%]	Post-emergence action against ECHCG in % (ECHCG [3]) [%]	Post-emergence action against DIGSA in % (DIGSA [4]) [%]	Post-emergence action against LOLRI in % (LOLRI [5]) [%]	Pre-emergence action against MATIN in % (MATIN) [%]	Pre-emergence herbicidal action against LOLRI in % (LOLRI [6]) [%]	Pre-emergence action against ECHCG in % (ECHCG [7]) [%]	Pre-emergence action against VIOTR in % (VIOTR) [%]	Pre-emergence action against ALOMY in % (ALOMY [8]) [%]	Post-emergence action against ALOMY in % (ALOMY [9]) [%]	Pre-emergence action against SETVI in % (SETVI [10]) [%]	Pre-emergence action against AMARE in % (AMARE) [%]	Pre-emergence action against VERPE in % (VERPE) [%]	Pre-emergence action against DIGSA in % (DIGSA [11]) [%]	Post-emergence action against ABUTH in % (ABUTH) [%]	Post-emergence action against AVEFA in % (AVEFA [12]) [%]
CC#Cc1cc(Br)c(C2=C(OC(=O)OCC)C3(CCC(COCC)C3)NC2=O)c(OC)c1 (stereo not shown) [Example P-05]	100	100	100	100	100	90	100	100	100	100	100	100	100	80	100		
CC#Cc1cc(Br)c(C2=C(OC(=O)OCC)C3(CCC(COCC)C3)NC2=O)c(OC)c1 (stereo not shown) [Example P-01]	100	100	100	100	100	80	100	100	100	100	100	100	100	100	100		
CC#Cc1cc(Br)c(C2=C(OC(=O)C(C)C)C3(CCC(COCC)C3)NC2=O)c(OC)c1 (stereo not shown) [Example P-23]	100	100	100	100	90		100	100	100	100	100	100	90	90	100	80	
CC#Cc1cc(C)c(C2=C(OC(=O)OCC)C3(CCC(COC)C3)NC2=O)c(OC)c1 (stereo not shown) [Example P-55]	80	100	100	100	100	90	100	100	100	100	100	100		80	100		100
C#CCOCC1CCC2(C1)NC(=O)C(c1c(C)cc(C#CC)cc1OC)=C2OC(=O)OCC (stereo not shown) [Example P-103]	100	100	100	100	90	90	100	100		100	100	100	100	90	100		90
CC#Cc1cc(C)c(C2=C(O)C3(CCC(COCC)C3)NC2=O)c(F)c1 (stereo not shown) [Example I-35]			100	100	100		100		100	100	100	100	90		100	80	80
CC#Cc1cc(C)c(C2=C(OC(=O)C(C)C)C3(CCC(COCC)C3)NC2=O)c(F)c1 (stereo not shown) [Example P-56]	80	100	100	100	100	80	100	100	100	100	100	100	80		100		90
CC#Cc1cc(F)c(C2=C(OC(=O)OCC)C3(CCC(COCC)C3)NC2=O)c(OC)c1 (stereo not shown) [Example P-61]	90	100	100	100	100		100	100		100	90	100		90	100	80	80
CC#Cc1cc(F)c(C2=C(OC(=O)C(C)C)C3(CCC(COCC)C3)NC2=O)c(OC)c1 (stereo not shown) [Example P-64]	80	100	100	100	100		100	90		100	100	100			100	80	80
C#CCOCC1CCC2(C1)NC(=O)C(c1c(C)cc(C#CC)cc1Cl)=C2O (stereo not shown) [Example I-78]	90	100	90	90	90	80	100	100	100	100	100	100	100	90	100		80
